Source: patent US5607953A, “Butenoic or propenoic acid derivative” (Eisai Co., Ltd., priority 1988, dated 1997)

Key:
[1] = Acute toxicity test (intravenous injection) using a mouse; conditions: in vivo
Description: The representative compounds of the present invention were examined by an ordinary acute toxicity test (intravenous injection) using a mouse to obtain the results shown in Table 4.

[2] = tested on: anesthetized thoracotomized dog; assay: Heart rate lowering and coronary bloodflow increasing effects upon anesthetized thoracotomized dog; assay type: in vivo; conditions: compounds of group (I), 0.3 mg/kg intravenous, anesthetized mongrel; for Coronary bloodflow (CBF): rate of increase in coronary bloodflow: left circumflex branch
Protocol: Heart Rate Lowering and Coronary Bloodflow Increasing Effects Upon Anesthetized Thoracotomized Dog
The chest of a grown-up mongrel was opened under enflurane inhalation anesthesia. The blood flow of the coronary artery was determined by setting a probe of an electromagnetic bloodflowmeter at its left circumflexbranch, while the heart rate was determined by triggering the wave form of the pressure in its left ventricle and counting it with a tachometer.
The intravenous administration of a test compound (in a dose of 0.3 mg per kg of the weight of the anesthetized mongrel) was carried out by using a catheter inserted into its femoral […].
The effect of increasing the bloodflow of the circumflex branch of the left coronary artery or the heart rate lowering effect was evaluated based on the difference between the bloodflow or the heart rate after the administration and that before the administration according to the following criteria.

Compound	LD50 [1] [mg/kg]	Heart rate (HR): rate of reduction in heart rate [2]	Coronary bloodflow (CBF): rate of increase in coronary bloodflow [2]
COc1ccc(CCN(C)CCCNC(=O)C/C=C/c2ccc(-n3cncn3)cc2)cc1OC [Compound M, (E)-N-[3-((N'-(2-(3,4-Dimethoxyphenyl)ethyl)-N'-methyl)amino)propyl]-4-(4-(1H-1,2,4-triazol-1-yl)phenyl)-3-butenamide]	120	+ (1-10%)	+ (1-100%)
COc1ccc(CCN(C)CCCNC(=O)C/C=C/c2ccc(-n3cnc(C)c3)cc2)cc1OC [Compound L, (E)-N-[3-((N'-(2-(3,4-Dimethoxyphenyl)ethyl)-N'-methyl)amino)propyl]-4-(4-(4-methyl-1H-imidazol-1-yl)phenyl)-3-butenamide]	92	+ (1-10%)	+ (1-100%)
CN(CCCNC(=O)C/C=C/c1ccc(-n2ccnc2)cc1)CCc1ccc2c(c1)OCO2 [Compound K, (E)-N-[3-((N'-(2-(3,4-Methylenedioxyphenyl)-ethyl)-N'-methyl)amino)propyl]-4-(4-(1H-imidazol-1-yl)phenyl)-3-butenamide]		++ (11-20%)	+ (1-100%)
